Test results: patent publication US7112585B2, “Pyrimidine derivatives as corticotropin releasing factor inhibitors” (Bristol-Myers Squibb Company, priority 2003, dated 2006)

How the values were obtained:
[1] = biological target: T1, cloned human CRF-R1 receptors (Homo sapiens, UniProt P34998); experiment: CRF-R1 Receptor Binding Assay (inhibition of 125I-ovine-CRF binding to cell membranes); parameters: key to activity: a: Ki≦100 nM; b: 100 nM<Ki≦500 nM; c: 500 nM<Ki≦5,000 nM; activity reported in percent inhibition at 10 μM; details: CRF assays; class d = activity only as percent inhibition at 10 μM (value not given)
T1 construct: the coding region was amplifies by PCR from start to stop codons; expressed in transfected cells; host or cells: 293EBNA (HEK 293 EBNA-1) cells, episomal vector phchCRFR, hygromycin-selected pool; membranes
T1 sequence (P34998 24-415): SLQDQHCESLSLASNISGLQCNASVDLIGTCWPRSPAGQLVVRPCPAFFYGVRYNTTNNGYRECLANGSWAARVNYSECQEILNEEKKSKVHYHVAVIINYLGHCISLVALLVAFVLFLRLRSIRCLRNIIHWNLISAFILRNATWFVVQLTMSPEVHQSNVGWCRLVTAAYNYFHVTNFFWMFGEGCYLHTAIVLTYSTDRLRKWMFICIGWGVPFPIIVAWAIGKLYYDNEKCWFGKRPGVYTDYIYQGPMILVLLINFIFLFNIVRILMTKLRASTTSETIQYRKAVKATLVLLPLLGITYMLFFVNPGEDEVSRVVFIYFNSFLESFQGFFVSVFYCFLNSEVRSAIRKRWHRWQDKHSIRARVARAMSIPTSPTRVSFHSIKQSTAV
Text: CRF-R1 Receptor Binding Assay for the Evaluation of Biological Activity
The following is a description of the isolation of cell membranes containing cloned human CRF-R1 receptors for use in a standard binding assay as well as a description of the assay itself.
Messenger RNA was isolated from human hippocampus. The mRNA was isolated from human hippocampus. The mRNA was reverse transcribed using oligo (dt) 12–18 and the coding region was amplifies by PCR from start to stop codons. The resulting PCR fragment was cloned into the EcORV site of pGEMV, from whence the insert was reclaimed using XhoI+XbaI and cloned into the XhoI+XbaI sites of vector pm3as (which contains a CMV promoter, the SV′t′ splice and early poly A signals, an Eptein-Barr viral origin of replication, and a hygromycin selectable marker). The resulting expression vector, called phchCRFR was transfected in 293EBNA cells and cells retaining the episome were selected in the presence of […] hygromycin. Cells surviving 4 weeks of selection in hygromycin were pooled, adapted to growth in suspension and used to generate membranes for the binding assay described below. Individual aliquots containing approximately 1×10^8 of the suspended cells were then centrifuged to form a pellet and frozen. For the binding assay a frozen pellet described above containing 293EBNA cells transfected with hCRFR1 receptors is homogenized in 10 mL of ice cold tissue buffer (50 mM HEPES buffer pH 7.0, containing 10 MM MgCl2, 2 mM EGTA, 1 μg/mL apotinin, 1 μg/mL leupeptin and 1 μg/mL pepstatin). The homoginate is centrifuged at 40,000×g for 12 min and the resulting pellet rehomogenized in 10 mL of tissue buffer. After another centrifugation at 40,000×g for 12 min, the pellet is resuspended to a protein concentration of 360 μg/mL to be used in the assay.
Binding assays are performed in 96 well plates; each well having a 300 μL capacity. To each well is added 50 μL of test drug dilutions (final concentration of drugs range from 10^−10–10^−5 M), 100 μL of ^125I-ovine-CRF (^125I-o-CRF) (final concentration 150 pM) and 150 μL of the cell homoginate described above. Plates are then allowed to incubate at room temperature for 2 hours before filtering the incubate over GF/F filters (presoaked with 0.3% polyethyleneimine) using an appropriate cell harvester. Filters are rinsed 2 times with ice cold assay buffer before removing individual filters and assessing them for radioactivity on a gamma counter.
Curves of the inhibition of ^125I-o-CRF binding to cell membranes at various dilutions of test drug are analyzed by the iterative curve fitting program LIGAND [P. J. Munson and D. Rodbard, Anal. Biochem., 107:220 (1980), which provides Ki values for inhibition which are then used to assess biological activity. […]
Messenger RNA was isolated from human hippocampus. The mRNA was isolated from human hippocampus. The mRNA was reverse transcribed using oligo (dt) 12–18 and the coding region was amplifies by PCR from start to stop codons. The resulting PCR fragment was cloned into the EcORV site of pGEMV, from whence the insert was reclaimed using XhoI+XbaI and cloned into the XhoI+XbaI sites of vector pm3as (which contains a CMV promoter, the SV′t′ splice and early poly A signals, an Eptein-Barr viral origin of replication, and a hygromycin selectable marker). The resulting expression vector, called phchCRFR was transfected in 293EBNA cells and cells retaining the episome were selected in the presence of […] hygromycin. Cells surviving 4 weeks of selection in hygromycin were pooled, adapted to growth in suspension and used to generate membranes for the binding assay described below. […]
A frozen pellet described above containing 293EBNA cells transfected with hCRFR1 receptors or the rat frontal cortex tissue dissected from frozen rat brains was prepared as the source of membranes expressing CRF1 receptors used in binding assays. […]

Cc1cc(C)c(Nc2nc(C)ncc2S(=O)(=O)c2ccc(-c3cncnc3)cc2)c(C)c1 [Example 24, [2-Methyl-5-(4-pyrimidin-5-yl-benzenesulfonyl)-pyrimidin-4-yl]-(2,4,6-trimethylphenyl)-amine]
activity [1]: d | melting point: 210 to 212 °C

Cc1cc(C)c(Nc2nc(C)ncc2S(=O)(=O)c2ccc(-c3ncccn3)cc2)c(C)c1 [Example 25, [2-Methyl-5-(4-pyrimidin-2-yl-benzenesulfonyl)-pyrimidin-4-yl]-(2,4,6-trimethylphenyl)-amine]
Ki [1]: ≤ 100 nM | melting point: 215 to 217 °C

Cc1cc(C)c(Nc2nc(C)ncc2S(=O)(=O)c2ccc(-c3ccncc3)cc2)c(C)c1 [Example 26, [2-Methyl-5-(4-pyridin-4-yl-benzenesulfonyl)-pyrimidin-4-yl]-(2,4,6-trimethylphenyl)-amine]
Ki [1]: 500 to 5000 nM | melting point: 232 to 234 °C

Cc1cc(C)c(Nc2nc(C)ncc2S(=O)(=O)c2ccc(-c3ccccn3)cc2)c(C)c1 [Example 27, [2-Methyl-5-(4-pyridin-2-yl-benzenesulfonyl)-pyrimidin-4-yl]-(2,4,6-trimethylphenyl)-amine]
Ki [1]: ≤ 100 nM | melting point: 201 to 203 °C

Cc1cc(C)c(Nc2nc(C)ncc2S(=O)(=O)c2ccc(-c3cccnc3)cc2)c(C)c1 [Example 28, [2-Methyl-5-(4-pyridin-3-yl-benzenesulfonyl)-pyrimidin-4-yl]-(2,4,6-trimethylphenyl)-amine]
Ki [1]: 500 to 5000 nM | melting point: 190 to 192 °C

Cc1cc(C)c(Nc2nc(C)ncc2S(=O)(=O)c2ccc(C3=NCCN3)cc2)c(C)c1 [Example 29, {5-[4-(4,5-Dihydro-1H-imidazol-2-yl)-benzenesulfonyl]-2-methyl-pyrimidin-4-yl}-(2,4,6-trimethylphenyl)-amine]
activity [1]: d | melting point: 240 to 242 °C

Cc1cc(C)c(Nc2nc(C)ncc2S(=O)(=O)c2ccc(-c3ncc[nH]3)cc2)c(C)c1 [Example 30, {5-[4-(1H-Imidazol-2-yl)-benzenesulfonyl]-2-methyl-pyrimidin-4-yl}-(2,4,6-trimethylphenyl)-amine]
activity [1]: d | melting point: 282 to 284 °C
